Reference: patent publication US12391737B2, “Soluble NPY2 receptor agonists” (Boehringer Ingelheim International GmbH, priority 2020, dated 2025)

Assays:
[1] = biological target: T1, Human Neuropeptide Y2 Receptor (Homo sapiens, UniProt P49146); assay: Radioligand binding competition assay (RLB); conditions: Table 3, 125I-PYY(1-36) competition; read-out: Ki
T1 construct: purchased CHEMICON HTS066M
T1 sequence (P49146 1-381): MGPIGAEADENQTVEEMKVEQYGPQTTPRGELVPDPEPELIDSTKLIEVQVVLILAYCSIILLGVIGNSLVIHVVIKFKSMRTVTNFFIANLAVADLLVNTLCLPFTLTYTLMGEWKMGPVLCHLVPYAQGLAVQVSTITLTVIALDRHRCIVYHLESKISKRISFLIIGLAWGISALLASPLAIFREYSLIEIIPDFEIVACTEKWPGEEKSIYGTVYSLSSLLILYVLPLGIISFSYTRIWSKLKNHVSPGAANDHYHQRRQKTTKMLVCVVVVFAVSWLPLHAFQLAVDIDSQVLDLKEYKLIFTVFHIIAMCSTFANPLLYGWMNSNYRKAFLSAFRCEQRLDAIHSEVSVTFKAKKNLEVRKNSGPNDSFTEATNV
How it was run: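 Receptor membranes, 0.5 μg/well; buffer 50 mM HEPES/5 mM MgCl2/1 mM CaCl2/0.2% ovalbumin, pH 7.4; 2 h RT, shaking. GF/C filtration, cold HEPES/500 mM NaCl wash, scintillation count. IC50 by nonlinear regression.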

Solubility determination = conditions: for Sol6: pH 6; for Sol7: pH 7
How it was run: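 Shake-flask style: 10 mg/ml peptide (TFA salt), 0.1 M sodium diphosphate pH 6.4/7.0, 600 rpm, 2 h, RT; filter; dilute 1 mg/ml in 50% MeCN; RP-UPLC, 0–100% B over 2 min, 50 °C. Solubility = sample/control area ratio. Final pH recorded.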

Structure (SMILES)	Ki [1]	Sol6 (Solubility determination)	Sol7 (Solubility determination)
CC(C)CC(=O)N[C@@H](C)C(=O)N1CCC[C@H]1C(=O)N[C@@H](CCC(=O)O)C(=O)N[C@@H](CCCCNC(=O)CCCCCNC(=O)CC[C@H](NC(=O)CCCCCCCCCCCCCCCCC(=O)O)C(=O)O)C(=O)N1CCC[C@H]1C(=O)N[C@@H](CCC(=O)O)C(=O)N[C@@H](CCC(=O)O)C(=O)N[C@@H](CC(=O)O)C(=O)N[C@@H](C)C(=O)N[C@H](C(=O)N1CCC[C@H]1C(=O)N[C@@H](CCC(=O)O)C(=O)N[C@@H](CCC(=O)O)C(=O)N[C@@H](CC(C)C)C(=O)N[C@@H](CCC(N)=O)C(=O)N[C@@H](C)C(=O)N[C@@H](Cc1ccc(O)cc1)C(=O)N[C@@H](Cc1ccc(O)cc1)C(=O)N[C@H](C(=O)N[C@@H](CO)C(=O)N[C@@H](CC(C)C)C(=O)N[C@@H](CCCNC(=N)N)C(=O)N[C@@H](Cc1c[nH]cn1)C(=O)N[C@@H](Cc1ccc(O)cc1)C(=O)N[C@@H](Cc1ccc(O)cc1)C(=O)N[C@@H](CC(N)=O)C(=O)N[C@@H](Cc1c[nH]c2ccccc12)C(=O)N[C@@H](CC(C)C)C(=O)N[C@H](C(=O)N[C@@H](CCCNC(=N)N)C(=O)N[C@@H](CCC(N)=O)C(=O)N[C@@H](CCCNC(=N)N)C(=O)N[C@@H](Cc1ccc(O)cc1)C(N)=O)[C@@H](C)O)C(C)C)[C@@H](C)O [Compound 95, N{alpha-4}-(3-methylbutanoyl)-N{epsilon-7}-(6-[(4S)-4-carboxy-4-(17-carboxyheptadecanamido)butanamido]hexanoyl)-[4A,7K,9E,13T,18Q,19A,22V,28Y,30W,31L]-hPYY(4-36)]	2.92 nM	8.9 mg/mL	7.9 mg/mL
CC(C)CC(=O)N[C@@H](C)C(=O)N1CCC[C@H]1C(=O)N[C@@H](CCC(=O)O)C(=O)N[C@@H](CCCCNC(=O)CCCCCNC(=O)CC[C@H](NC(=O)CCCCCCCCCCCCCCCCC(=O)O)C(=O)O)C(=O)N1CCC[C@H]1C(=O)N[C@@H](CCC(=O)O)C(=O)N[C@@H](CCC(=O)O)C(=O)N[C@@H](CO)C(=O)N[C@@H](C)C(=O)N[C@H](C(=O)N1CCC[C@H]1C(=O)N[C@@H](CCC(=O)O)C(=O)N[C@@H](CCC(=O)O)C(=O)N[C@@H](CC(C)C)C(=O)N[C@@H](CCC(N)=O)C(=O)N[C@@H](CCCNC(=N)N)C(=O)N[C@@H](Cc1ccc(O)cc1)C(=O)N[C@@H](Cc1ccc(O)cc1)C(=O)N[C@H](C(=O)N[C@@H](CO)C(=O)N[C@@H](CC(C)C)C(=O)N[C@@H](CCCNC(=N)N)C(=O)N[C@@H](Cc1c[nH]cn1)C(=O)N[C@@H](Cc1ccc(O)cc1)C(=O)N[C@@H](Cc1ccc(O)cc1)C(=O)N[C@@H](CC(N)=O)C(=O)N[C@@H](Cc1c[nH]c2ccccc12)C(=O)N[C@@H](CC(C)C)C(=O)N[C@H](C(=O)N[C@@H](CCCNC(=N)N)C(=O)N[C@@H](CCC(N)=O)C(=O)N[C@@H](CCCNC(=N)N)C(=O)N[C@@H](Cc1ccc(O)cc1)C(N)=O)[C@@H](C)O)C(C)C)[C@@H](C)O [Compound 96, N{alpha-4}-(3-methylbutanoyl)-N{epsilon-7}-(6-[(4S)-4-carboxy-4-(17-carboxyheptadecanamido)butanamido]hexanoyl)-[4A,7K,9E,11S,13T,18Q,22V,28Y,30W,31L]-hPYY(4-36)]	3.06 nM	8.8 mg/mL	8.7 mg/mL
CC[C@H](C)[C@H](NC(=O)[C@H](CCC(=O)O)NC(=O)[C@H](CCC(=O)O)NC(=O)[C@@H]1CCCN1C(=O)[C@@H](NC(=O)[C@H](C)NC(=O)[C@H](CC(=O)O)NC(=O)[C@H](CCC(=O)O)NC(=O)[C@H](CCC(=O)O)NC(=O)[C@@H]1CCCN1C(=O)[C@H](CCCCNC(=O)CCCCCNC(=O)CC[C@H](NC(=O)CCCCCCCCCCCCCCCCC(=O)O)C(=O)O)NC(=O)[C@H](CCC(=O)O)NC(=O)[C@@H]1CCCN1C(=O)[C@H](C)NC(=O)CC(C)C)[C@@H](C)O)C(=O)N[C@@H](CCC(N)=O)C(=O)N[C@@H](CCCNC(=N)N)C(=O)N[C@@H](Cc1ccc(O)cc1)C(=O)N[C@@H](Cc1ccc(O)cc1)C(=O)N[C@@H](CC(C)C)C(=O)N[C@@H](CO)C(=O)N[C@@H](CC(C)C)C(=O)N[C@@H](CCCNC(=N)N)C(=O)N[C@@H](Cc1c[nH]cn1)C(=O)N[C@@H](Cc1ccc(O)cc1)C(=O)N[C@@H](Cc1ccc(O)cc1)C(=O)N[C@@H](CC(N)=O)C(=O)N[C@@H](Cc1c[nH]c2ccccc12)C(=O)N[C@@H](CC(C)C)C(=O)N[C@H](C(=O)N[C@@H](CCCNC(=N)N)C(=O)N[C@@H](CCC(N)=O)C(=O)N[C@@H](CCCNC(=N)N)C(=O)N[C@@H](Cc1ccc(O)cc1)C(N)=O)[C@@H](C)O [Compound 97, N{alpha-4}-(3-methylbutanoyl)-N{epsilon-7}-(6-[(4S)-4-carboxy-4-(17-carboxyheptadecanamido)butanamido]hexanoyl)-[4A,7K,9E,13T,17I,18Q,22L,28Y,30W,31L]-hPYY(4-36)]	4.23 nM	>10.0 mg/mL	>10.0 mg/mL
CC[C@H](C)[C@H](NC(=O)[C@H](Cc1ccc(O)cc1)NC(=O)[C@H](Cc1ccc(O)cc1)NC(=O)[C@H](CCCNC(=N)N)NC(=O)[C@H](CCC(N)=O)NC(=O)[C@H](CC(C)C)NC(=O)[C@H](CCC(=O)O)NC(=O)[C@H](CCC(=O)O)NC(=O)[C@@H]1CCCN1C(=O)[C@@H](NC(=O)[C@H](C)NC(=O)[C@H](CC(=O)O)NC(=O)[C@H](C)NC(=O)[C@H](CCC(=O)O)NC(=O)[C@@H]1CCCN1C(=O)[C@H](CCCCNC(=O)CCCCCNC(=O)CC[C@H](NC(=O)CCCCCCCCCCCCCCCCC(=O)O)C(=O)O)NC(=O)[C@H](CCC(=O)O)NC(=O)[C@@H]1CCCN1C(=O)[C@H](C)NC(=O)CC(C)C)[C@@H](C)O)C(=O)N[C@@H](C)C(=O)N[C@@H](CC(C)C)C(=O)N[C@@H](CCCNC(=N)N)C(=O)N[C@@H](Cc1c[nH]cn1)C(=O)N[C@@H](Cc1ccc(O)cc1)C(=O)N[C@@H](Cc1ccc(O)cc1)C(=O)N[C@@H](CC(N)=O)C(=O)N[C@@H](Cc1c[nH]c2ccccc12)C(=O)N[C@@H](CC(C)C)C(=O)N[C@H](C(=O)N[C@@H](CCCNC(=N)N)C(=O)N[C@@H](CCC(N)=O)C(=O)N[C@@H](CCCNC(=N)N)C(=O)N[C@@H](Cc1ccc(O)cc1)C(N)=O)[C@@H](C)O [Compound 100, N{alpha-4}-(3-methylbutanoyl)-N{epsilon-7}-(6-[(4S)-4-carboxy-4-(17-carboxyheptadecanamido)butanamido]hexanoyl)-[4A,7K,9E,10A,13T,18Q,22I,23A,28Y,30W,31L]-hPYY(4-36)]	1.01 nM	9.8 mg/mL	5.7 mg/mL
CC(C)CC(=O)N[C@@H](C)C(=O)N1CCC[C@H]1C(=O)N[C@@H](CCC(=O)O)C(=O)N[C@@H](CCCCNC(=O)CCCCCNC(=O)CC[C@H](NC(=O)CCCCCCCCCCCCCCCCC(=O)O)C(=O)O)C(=O)N1CCC[C@H]1C(=O)N[C@@H](CCC(=O)O)C(=O)N[C@@H](CCC(=O)O)C(=O)N[C@@H](CC(=O)O)C(=O)N[C@@H](C)C(=O)N[C@H](C(=O)N[C@@H](CC(C)C)C(=O)N[C@@H](CCC(=O)O)C(=O)N[C@@H](CCC(=O)O)C(=O)N[C@@H](CC(C)C)C(=O)N[C@@H](CCC(N)=O)C(=O)N[C@@H](CCCNC(=N)N)C(=O)N[C@@H](Cc1ccc(O)cc1)C(=O)N[C@@H](Cc1ccc(O)cc1)C(=O)N[C@H](C(=O)N[C@@H](CO)C(=O)N[C@@H](CC(C)C)C(=O)N[C@@H](CCCNC(=N)N)C(=O)N[C@@H](Cc1c[nH]cn1)C(=O)N[C@@H](Cc1ccc(O)cc1)C(=O)N[C@@H](Cc1ccc(O)cc1)C(=O)N[C@@H](CC(N)=O)C(=O)N[C@@H](Cc1c[nH]c2ccccc12)C(=O)N[C@@H](CC(C)C)C(=O)N[C@H](C(=O)N[C@@H](CCCNC(=N)N)C(=O)N[C@@H](CCC(N)=O)C(=O)N[C@@H](CCCNC(=N)N)C(=O)N[C@@H](Cc1ccc(O)cc1)C(N)=O)[C@@H](C)O)C(C)C)[C@@H](C)O [Compound 102, N{alpha-4}-(3-methylbutanoyl)-N{epsilon-7}-(6-[(4S)-4-carboxy-4-(17-carboxyheptadecanamido)butanamido]hexanoyl)-[4A,7K,9E,13T,14L,18Q,22V,28Y,30W,31L]-hPYY(4-36)]	7.15 nM	10.0 mg/mL	9.7 mg/mL
CC(C)CC(=O)N[C@@H](C)C(=O)N1CCC[C@H]1C(=O)N[C@@H](CCC(=O)O)C(=O)N[C@@H](CCCCNC(=O)CCCCCNC(=O)CC[C@H](NC(=O)CCCCCCCCCCCCCCCCC(=O)O)C(=O)O)C(=O)N1CCC[C@H]1C(=O)N[C@@H](CCC(=O)O)C(=O)N[C@@H](CCC(=O)O)C(=O)N[C@@H](CC(=O)O)C(=O)N[C@@H](C)C(=O)N[C@H](C(=O)N[C@@H](CCC(N)=O)C(=O)N[C@@H](CCC(=O)O)C(=O)N[C@@H](CCC(=O)O)C(=O)N[C@@H](CC(C)C)C(=O)N[C@@H](CCC(N)=O)C(=O)N[C@@H](CCCNC(=N)N)C(=O)N[C@@H](Cc1ccc(O)cc1)C(=O)N[C@@H](Cc1ccc(O)cc1)C(=O)N[C@H](C(=O)N[C@@H](CO)C(=O)N[C@@H](CC(C)C)C(=O)N[C@@H](CCCNC(=N)N)C(=O)N[C@@H](Cc1c[nH]cn1)C(=O)N[C@@H](Cc1ccc(O)cc1)C(=O)N[C@@H](Cc1ccc(O)cc1)C(=O)N[C@@H](CC(N)=O)C(=O)N[C@@H](Cc1c[nH]c2ccccc12)C(=O)N[C@@H](CC(C)C)C(=O)N[C@H](C(=O)N[C@@H](CCCNC(=N)N)C(=O)N[C@@H](CCC(N)=O)C(=O)N[C@@H](CCCNC(=N)N)C(=O)N[C@@H](Cc1ccc(O)cc1)C(N)=O)[C@@H](C)O)C(C)C)[C@@H](C)O [Compound 105, N{alpha-4}-(3-methylbutanoyl)-N{epsilon-7}-(6-[(4S)-4-carboxy-4-(17-carboxyheptadecanamido)butanamido]hexanoyl)-[4A,7K,9E,13T,14Q,18Q,22V,28Y,30W,31L]-hPYY(4-36)]	5.97 nM	>10.0 mg/mL	9.9 mg/mL
